pIC50: −log10 of the molar value. In brackets after ≈: the same amount, converted by molar mass. Like-named read-outs stand apart in the source and are kept apart here.
Legend:
[1] = tested on: axenic amastigotes of L. amazonensis (strain MHOM/BR/76/LTB-012); test: microbe, parasite or virus in culture; conditions: Leishmania amazonensis
[2] = tested on: peritoneal macrophages; test: Toxicity to peritoneal macrophages (Trypan Blue count); type: cell-based, BALB/C mouse
Procedure: (§1) Peritoneal macrophages were prepared as follows. Non-inflammatory macrophages (10^6) were collected from each BALB/C mouse. The cells adhered at 37° C. after 2 h under 5% CO2 in a CO2 incubator. The plates were then rinsed two to three times with 0.5 mL of RPMI+buffer MOPS without fetal calf serum to eliminate non-adhering cells. The supernatant on the plates was replaced by fresh medium (RPMI+glutamine+FCS+antibiotics), 0.5 mL of medium per well. To determine the toxicity of the compounds to macrophages, dilutions of compounds were added on a part of the macrophages prepared above. […] The medium was then removed and 1 μL of sterile Trypan Blue was added. Cover glasses N° 1 were left where cells were plated and then the number of macrophages in a microscope was determined with a haemocytometer. All experiments were performed in triplicate.

[3] = tested on: Trypanosoma cruzi (Tulahuen C4); test: In vitro anti-T. cruzi activity (β-galactosidase CPRG colorimetric assay in VERO monolayer); type: cell-based; conditions: for inhibition at 10 µg/mL / pIC50: Trypanosoma cruzi, TULAHUEN, Vero; for inhibition at 10 µg/mL: 120 h, 10 μg/mL of each compound, 120 hours, read-out: T. cruzi Inhib. (%); for pIC50: Table 3, read-out: IC50 T. cruzi
[4] = tested on: VERO cells; test: Cell growth inhibition bioassay (sulforhodamine B); type: cell-based, African Green Monkey; conditions: 48 h, SRB; for GI50: Chlorocebus sabaeus, Vero, read-out: GI50 in indicated cell line: VERO
Procedure: (§2) The cytotoxicity of compounds was assayed as follows. […] Appropriate solvent controls were tested for comparison. The percent inhibition of cell growth relative to the control was evaluated colorimetrically using a sulforhodamine B dye by comparison to the control. The calorimetric procedure followed that published in Skehan et al., J. Nat. Cancer Inst., […], pp. 1107-1112 (1990) and Boyd & Paull, Drug Dev. Res., Vol. 34, pp. 91-109 (1995). […] The cell lines are: 3T3 cells are BALB/3T3 clone A31 embryonic mouse fibroblast cells; H460 cells are human large cell lung cancer cells; DU145 cells are human prostate carcinoma cells; MCF-7 cells are human breast adenocarcinoma cells; M-14 cells are human melanoma cells; HT-29 cells are human colon adenocarcinoma cells; PC3 cells are human prostate adenocarcinoma cells; K562 cells are human chronic myelogenous leukemia cells; and VERO cells are African Green Monkey kidney epithelial cells.

[5] = tested on: M. tuberculosis H37Rv; test: Conventional aerobic (MABA) culture assay, luminescence MIC; type: cell-based, Mycobacterium tuberculosis; conditions: aerobic, 7 days, H37Rv; for MIC: Mycobacterium tuberculosis, 168 h
[6] = tested on: MCF-7 cells; test: Cell growth inhibition bioassay (sulforhodamine B); type: cell-based, human; conditions: 48 h, SRB; for GI50: Homo sapiens, MCF7, read-out: GI50 in indicated cell line: MCF-7
Procedure: as §2

[7] = tested on: M-14 cells; test: Cell growth inhibition bioassay (sulforhodamine B); type: cell-based, human; conditions: 48 h, SRB; for GI50: Homo sapiens, M14, read-out: GI50 in indicated cell line: M-14
Procedure: as §2

[8] = tested on: DU145 cells; test: Cell growth inhibition bioassay (sulforhodamine B); type: cell-based, human; conditions: 48 h, SRB; for GI50: Homo sapiens, DU-145, read-out: GI50 in indicated cell line: DU145
Procedure: as §2

[9] = tested on: HT-29 cells; test: Cell growth inhibition bioassay (sulforhodamine B); type: cell-based, human; conditions: 48 h, SRB; for GI50: Homo sapiens, HT-29, read-out: GI50 in indicated cell line: HT-29
Procedure: as §2

[10] = tested on: K562 cells; test: Cell growth inhibition bioassay (sulforhodamine B); type: cell-based, human; conditions: 48 h, SRB; for GI50: Homo sapiens, K562, read-out: GI50 in indicated cell line: K562
Procedure: as §2

[11] = tested on: H460 cells; test: Cell growth inhibition bioassay (sulforhodamine B); type: cell-based, human; conditions: 48 h, SRB; for GI50: Homo sapiens, NCI-H460, read-out: GI50 in indicated cell line: H460
Procedure: as §2

[12] = tested on: axenic amastigotes of L. amazonensis (strain MHOM/BR/76/LTB-012); conditions: Table 8b; for pIC50: read-out: L. amazonensis IC50
[13] = tested on: 3T3 cells; test: Cell growth inhibition bioassay (sulforhodamine B); type: cell-based, mouse; conditions: 48 h, SRB; for GI50: Mus musculus, NIH3T3, read-out: GI50 in indicated cell line: 3T3
Procedure: as §2

[14] = Toxicity to peritoneal macrophages (Trypan Blue count); type: cell-based, BALB/C mouse; conditions: BALB/C, mouse, Cytotoxicity Macrophages IC50
Procedure: as §1

[15] = tested on: L. amazonensis; conditions: intralesional, compounds 5 mg/kg/day; for Mean lesion size (mm) / Mean parasite quantification (per 10^6) in lesion per mg (±SD) / Mean lesion wt (mg) (±SD) / % Variation of lesion wt / % reduction of parasite burden in the lesion: Glucantime 33 mg Sb(v)/kg/day; for Mean lesion wt (mg) (±SD): BALB/c mice n=10; for % Variation of lesion wt / % reduction of parasite burden in the lesion: vs control
[16] = 72 h, read-out: IC50 L. amazonensis
[17] = Mus musculus, Peritoneal macrophage, 48 h, Table 7, read-out: IC50 Macrophage

COc1cc(O)cc(O)c1C(=O)/C=C/c1ccccc1F [Compound I-34, (2E)-1-(2,4-Dihydroxy-6-methoxyphenyl)-3-(2-fluorophenyl)-2-propen-1-one]
pIC50 [1, 16]: 4.93
pIC50 [2, 17]: 4.80

C=CCOc1cc(OC)c(C(=O)/C=C/c2ccc(O)c(OC)c2)c(OCC=C)c1 [Compound I-18, (2E)-1-[2-Methoxy-4,6-bis(2-propenyloxy)phenyl]-3-(3-methoxy-4-hydroxyphenyl)-2-propen-1-one]
inhibition at 10 µg/mL [3]: 27.9%
pIC50 [3]: < 4.60
pIC50 [1, 16]: 3.97

COc1cc(/C=C/C(=O)c2c(O)cc(O)cc2OC)cc(OC)c1OC [Compound I-38, (2E)-1-(2,4-Dihydroxy-6-methoxyphenyl)-3-(3,4,5-trimethoxydroxyphenyl)-2-propen-1-one]
pIC50 [1, 16]: 5.01

C=CCOc1cc(OC)c(C(=O)/C=C/c2ccc[nH]2)c(OCC=C)c1 [Compound I-22, (2E)-3-(1H-pyrrol-2-yl)-1-[2-methoxy-4,6-bis(2-propenyloxy)phenyl]-2-propen-1-one]
inhibition at 10 µg/mL [3]: 1.25%
pIC50 [3]: < 4.00
pIC50 [1, 16]: 4.03

N#Cc1ccc(C=NNc2ncnc3sc4c(c23)CCCC4)cc1 [II-32]
GI50 in indicated cell line: VERO [4]: >62.5 µg/mL
MIC MABA [5]: >100 µg/mL
pIC50 [2]: 4.27
GI50 in indicated cell line: MCF-7 [6]: 33.9 µg/mL (≈ 102 µM)
GI50 in indicated cell line: M-14 [7]: >62.5 µg/mL
GI50 in indicated cell line: DU145 [8]: >62.5 µg/mL
GI50 in indicated cell line: HT-29 [9]: >62.5 µg/mL
GI50 in indicated cell line: K562 [10]: >62.5 µg/mL
GI50 in indicated cell line: H460 [11]: >62.5 µg/mL
pIC50 [12]: 4.97
GI50 in indicated cell line: 3T3 [13]: 50.1 µg/mL (≈ 150 µM)

C(=N/Nc1ncnc2sc3c(c12)CCCC3)/c1ccncc1 [II-20]
GI50 [4]: 38.3 µg/mL (≈ 124 µM)
MIC [5]: > 100 µg/mL
pIC50 ([1]; read-out: L. amazonensis IC50): 4.14
IC50 at 48 h [14]: 47.7 µM
GI50 [6]: 26 µg/mL (≈ 84 µM)
GI50 [7]: > 62.5 µg/mL
GI50 [8]: 26 µg/mL (≈ 84 µM)
GI50 [9]: 47.3 µg/mL (≈ 153 µM)
GI50 [10]: 33.8 µg/mL (≈ 109 µM)
GI50 [11]: 52.4 µg/mL (≈ 169 µM)
Selectivity Index [12]: 0.7
GI50 [13]: 25.7 µg/mL (≈ 83.1 µM)

N-methylglucamine antimoniate [Glucantime, reference compound]
Mean lesion size (mm) ([15]; after 4 weeks treatment): 2.1 mm
Mean parasite quantification (per 10^6) in lesion per mg (±SD) ([15]; after 4 weeks treatment): 0 (0) amastigotes (×10^6)/mg
Mean lesion wt (mg) (±SD) ([15]; after 4 weeks treatment): 5.6 (±0.4) mg
% Variation of lesion wt ([15]; after 4 weeks treatment): 91%
% reduction of parasite burden in the lesion ([15]; after 4 weeks treatment): 100%
Mean lesion size (mm) ([15]; after 7 weeks treatment): 2.2 mm
Mean parasite quantification (per 10^6) in lesion per mg (±SD) ([15]; after 7 weeks treatment): 0 (0) amastigotes (×10^6)/mg
Mean lesion wt (mg) (±SD) ([15]; after 7 weeks treatment): 13.5 (±2.9) mg
% Variation of lesion wt ([15]; after 7 weeks treatment): 85%
% reduction of parasite burden in the lesion ([15]; after 7 weeks treatment): 100%
Lesion diameter ([15]; Glucantime 33 mg/kg/day): 2.2 mm
Reduction of parasite burden After 4 weeks ([15]; Glucantime 33 mg/kg/day, after 4 weeks): 100%
Reduction of parasite burden After 7 weeks ([15]; Glucantime 33 mg/kg/day, after 7 weeks): 100%

COc1cc(O)cc(O)c1C(=O)/C=C/c1ccccc1Br [Compound I-35, (2E)-3-(2-Bromophenyl)-1-(2,4-dihydroxy-6-methoxyphenyl)-2-propen-1-one]
pIC50 [1, 16]: 4.97
pIC50 [2, 17]: 4.84

COc1cc(O)cc(O)c1C(=O)/C=C/c1ccc(Cl)cc1 [Compound I-33, (2E)-3-(4-Chlorophenyl)-1-(2,4-dihydroxy-6-methoxyphenyl)-2-propen-1-one]
pIC50 [1, 16]: 4.95
pIC50 [2, 17]: 4.72

COc1cccc(/C=C/C(=O)c2c(O)cc(O)cc2OC)c1 [Compound I-31, (2E)-1-(2,4-Dihydroxy-6-methoxyphenyl)-3-(3-methoxyphenyl)-2-propen-1-one]
pIC50 [1, 16]: 4.92
pIC50 [2, 17]: 4.75

O=[N+]([O-])c1ccccc1C=NNc1ncnc2sc3c(c12)CCCC3 [II-23]
GI50 in indicated cell line: VERO [4]: >62.5 µg/mL
MIC MABA [5]: >100 µg/mL
T. cruzi IC50 Lab A ([3]; Lab A): 1.1 µg/mL
pIC50 [2]: < 4.00
GI50 in indicated cell line: MCF-7 [6]: 18.4 µg/mL (≈ 52.1 µM)
GI50 in indicated cell line: M-14 [7]: 58.9 µg/mL (≈ 167 µM)
GI50 in indicated cell line: DU145 [8]: 36.4 µg/mL (≈ 103 µM)
GI50 in indicated cell line: HT-29 [9]: 70.5 µg/mL (≈ 199 µM)
GI50 in indicated cell line: K562 [10]: 61.6 µg/mL (≈ 174 µM)
GI50 in indicated cell line: H460 [11]: 18.7 µg/mL (≈ 52.9 µM)
pIC50 [12]: 4.42
GI50 in indicated cell line: 3T3 [13]: >62.5 µg/mL

C=CCOc1cc(OC)c(C(=O)/C=C/C=C/c2ccccc2)c(OCC=C)c1 [Compound I-21, (2E,4E)-1-[2-Methoxy-4,6-bis(2-propenyloxy)phenyl]-5-phenyl-2,4-pentadien-1-one]
inhibition at 10 µg/mL [3]: 47.7%
pIC50 [3]: < 4.60
pIC50 [1, 16]: 4.12

COc1cc(O)cc(O)c1C(=O)/C=C/c1ccccc1 [Compound I-29, (2E)-1-(2,4-Dihydroxy-6-methoxyphenyl)-3-(phenyl)-2-propen-1-one]
pIC50 [1, 16]: 4.80
pIC50 [2, 17]: 4.57

COc1cc(/C=C/C(=O)c2c(O)cc(O)cc2OC)ccc1O [Compound I-37, (2E)-1-(2,4-Dihydroxy-6-methoxyphenyl)-3-(3-methoxy-4-hydroxyphenyl)-2-propen-1-one]
pIC50 [1, 16]: 4.83

COc1cc(O)cc(O)c1C(=O)/C=C/c1ccc(C)cc1 [Compound I-41, (2E)-1-(2,4-Dihydroxy-6-methoxyphenyl)-3-(4-methylphenyl)-2-propen-1-one]
pIC50 [1, 16]: 5.13
pIC50 [2, 17]: 4.78

COc1cc(O)cc(O)c1C(=O)/C=C/c1ccc(F)cc1 [Compound I-40, (2E)-1-(2,4-Dihydroxy-6-methoxyphenyl)-3-(4-fluorophenyl)-2-propen-1-one]
pIC50 [1, 16]: 4.93
pIC50 [2, 17]: 4.54

COc1cc(O)cc(O)c1C(=O)/C=C/c1ccc(O)cc1 [Compound I-30, (2E)-1-(2,4-Dihydroxy-6-methoxyphenyl)-3-(4-hydroxyphenyl)-2-propen-1-one]
pIC50 [1, 16]: 4.80
pIC50 [2, 17]: 4.66

COc1cc(O)cc(O)c1C(=O)/C=C/C=C/c1ccccc1 [Compound I-39, (2E,4E)-1-(2,4-Dihydroxy-6-methoxyphenyl)-5-phenyl-2,4-pentadien-1-one]
pIC50 [1, 16]: 4.28

c1ccc(C(=NNc2ncnc3sc4c(c23)CCCC4)c2ccccc2)cc1 [II-49]
GI50 [4]: > 62.5 µg/mL
MIC [5]: > 100 µg/mL
pIC50 ([1]; read-out: L. amazonensis IC50): 4.15
IC50 at 48 h [14]: 59.8 µM
GI50 [6]: > 62.5 µg/mL
GI50 [7]: > 62.5 µg/mL
GI50 [8]: > 62.5 µg/mL
GI50 [9]: > 62.5 µg/mL
GI50 [10]: > 62.5 µg/mL
GI50 [11]: > 62.5 µg/mL
Selectivity Index [12]: 0.9
GI50 [13]: > 62.5 µg/mL

COc1cc(O)cc(O)c1C(=O)/C=C/c1ccc(C(F)(F)F)cc1 [Compound I-32, (2E)-1-(2,4-Dihydroxy-6-methoxyphenyl)-3-[4-(trifluoromethyl)phenyl]-2-propen-1-one]
pIC50 [1, 16]: 5.07
pIC50 [2, 17]: 4.77

Reference: patent US9061984B2 (University of Louisville Research Foundation, Inc., priority 2008, dated 2015)
